# Like-named read-outs stand apart in the source and are kept apart here.
# Assays:
# [1] = tested on: cancers harboring atypical (non-V600E/K) BRAF mutations; assay: solid tumor Phase 1b trial of BVD-523, tumor response by RECIST v1.1 and duration of treatment; format: in vivo, human; conditions: for duration of treatment: single patient
# Procedure: The waterfall plot depicted in FIG. 2 provides an illustration of human clinical trial patient information showing each individual patient's response to treatment with BVD-523, as measured by % change in tumor burden. Patients generally received 600 mg, twice daily (BID), with some patients receiving a deescalated dose of 300 mg-400 mg BID if side effects were not manageable with other palliative medication. […] The horizontal axis across the plot serves as a baseline measurement for each patient. The vertical axis is a measure of the maximum percentage change from baseline; i.e., percent growth or reduction of tumor burden by radiologic measurement according to RECIST v1.1. Radiologic measurement comprised computed tomography (CT) scan and, rarely, magnetic resonance imaging (MRI). The tumor burden data represented by FIG. 2 is arranged from the worst value (i.e. greatest progression of tumor burden) on the left side of the plot to the best value (i.e., greatest reduction of tumor burden) on the right side of the plot. RECIST v1.1 response criteria for measured target lesions have been described previously. (See Eisenhauer, E. A., et al., New response evaluation criteria in solid tumours: Revised RECIST guideline (version 1.1), European J. of Cancer 45, 228-247 (2009), incorporated by reference herein in its entirety). […] Members of Group 1 are any patients with any BRAF mutation in any tumor type other than colorectal cancer (CRC) and non-small cell lung carcinoma (NSCLC), and that have not been previously treated with a MAPK pathway inhibitor. The members of Group 2 are patients with any BRAF mutation in CRC that have not been previously treated with a MAPK pathway inhibitor. The members of Group 3 are patients having a tumor with a BRAF […] mutation that is refractory to MAPK inhibitor treatment. The members of Group 6 are patients with any BRAF mutation present in NSCLC. […] The duration of treatment for each subject in each group is illustrated from the top (longest treatment duration) to bottom (least treatment duration) of the groups. The horizontal axis represents the duration, in days, that the patient was on the study. […] All 28 patients measured for RECIST v1.1 response criteria are included, plus additional patients not evaluated by RECIST v1.1 (diamond=partial response; circle=stable disease: vertical bar=progressive disease; triangle=not evaluated). The mean duration of BVD-523 treatment before discontinuation for tumors harboring the same BRAF mutation was: […], 73.6 days; […], 208.14 days: […], 50.25 days: […], 73.3 days; […], 63.5 days. For single patient representatives of specific BRAF mutations, the duration of treatment was: […], 304 days: […], 84 days: […], 77 days: BRAF fusion, 65 days: BRAF-AGAP3 rearrangement, 43 days: BRAF exon 15 splice variant, 15 days. By genomic screening of cancer patients for BRAF mutation and treating them prior to full in vitro characterization of those mutations (as a driver mutation), BVD-523 is shown to be useful to interrogate and discover efficacious treatment options for patients carrying mutations in BRAF. The clinical population of patients and the efficacy is not defined primarily by tumor type, but rather mutational status of enzymes such as BRAF, upstream of ERK 1/2 kinase activation.
# ERK1/2 [2] = assay: autophosphorylation of ERK (mechanism of action of ERK1/2 inhibitors); format: biochemical; conditions: stated in the description, no test described
# ERK1/2 [3] = conditions: Morris et al., 2013; cited from earlier work
# [4] = 28 evaluable patients, RECIST v1.1, generally 600 mg BID
SMILES,"number of patients with partial response (PR) [1, 4]","number of patients with progressive disease at first evaluation [1, 4]","number of patients with stable disease [1, 4]","patients with partial response or stable disease ([1]; patients with atypical (non-V600E/K) BRAF mutations, RECIST v1.1)",duration of treatment ([1]; BRAF F247L),duration of treatment ([1]; BRAF G466V),duration of treatment ([1]; BRAF L485W),duration of treatment ([1]; BRAF exon 15 splice variant),duration of treatment ([1]; BRAF fusion),duration of treatment ([1]; BRAF-AGAP3 rearrangement),mean duration of treatment before discontinuation ([1]; tumors harboring BRAF D594),mean duration of treatment before discontinuation ([1]; tumors harboring BRAF G469),mean duration of treatment before discontinuation ([1]; tumors harboring BRAF K601E),mean duration of treatment before discontinuation ([1]; tumors harboring BRAF L597),mean duration of treatment before discontinuation ([1]; tumors harboring BRAF T599 Dup),effect on autophosphorylation of ERK (ERK1/2 [2]),effect on autophosphorylation of ERK (ERK1/2 [3])
CC(C)Nc1cc(-c2c[nH]c(C(=O)N[C@H](CO)c3cccc(Cl)c3)c2)c(Cl)cn1 [BVD-523],Five,Three,19 patients,24 out of 28,84 days,77 days,304 days,15 days,65 days,43 days,73.6 days,208.14 days,50.25 days,73.3 days,63.5 days,allows for the autophosphorylation of ERK while still inhibiting ERK,
O=C(Nc1ccc2[nH]nc(-c3ccncc3)c2c1)[C@@H]1CCN(CC(=O)N2CCN(c3ccc(-c4ncccn4)cc3)CC2)C1 [SCH772984],,,,,,,,,,,,,,,,,inhibit autophosphorylation of ERK
